# Test results: PubChem BioAssay (NCI)
# “And” between values parts separate entries of the source, which are not always exact repeats. Equal values may be shown once.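 Grown in 96-well plates, cells were treated for 48 hours with each compound at five concentrations. Insufficient inhibition: endpoint recorded as highest concentration tested. Definition used: TGI = concentration required for complete inhibition of growth.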
# Columns and labels:
# Test in all cases: inhibition of tumour cell growth, NCI panel, 48 h
# NCI-H23 lung = test system: NCI-H23 lung
# MOLT-4 leukemia = test system: MOLT-4 leukemia
# SW-620 colon = test system: SW-620 colon
# SR leukemia = test system: SR leukemia
# HOP-62 NSCLC = test system: HOP-62 NSCLC
# OVCAR-8 ovarian = test system: OVCAR-8 ovarian
# HOP-92 NSCLC = test system: HOP-92 NSCLC
# MDA-MB-231 breast = test system: MDA-MB-231 breast
# DU-145 prostate = test system: DU-145 prostate
# UACC-257 melanoma = test system: UACC-257 melanoma
SMILES,TGI (NCI-H23 lung),TGI (MOLT-4 leukemia),TGI (SW-620 colon),TGI (SR leukemia),TGI (HOP-62 NSCLC),TGI (OVCAR-8 ovarian),TGI (HOP-92 NSCLC) [µM],TGI (MDA-MB-231 breast),TGI (DU-145 prostate),TGI (UACC-257 melanoma)
C=CCOc1ccc(C2C(C(=O)OCC)C(=O)CC(C)(O)C2C(=O)OCC)cc1OC (stereo not given),> 100 µM,> 100 µM,> 100 µM,> 100 µM,> 100 µM,> 100 µM,> 100,> 100 µM,> 100 µM,> 100 µM
Nc1ccc(C(=O)N2CCC[C@H]2CO)c(N)c1,> 100 µM,> 100 µM,> 100 µM,> 100 µM,> 100 µM,> 100 µM,> 100,> 100 µM,> 100 µM,> 100 µM
N#Cc1c(Cl)cc(Cl)n2c1nc1ccccc12,39.9 µM,> 28.8 µM,> 45 µM,> 29.6 µM,51.7 µM,35 µM,> 21.9,14.2 µM,31.8 µM,25.1 µM
CC(C)(C)OC(=O)NCCCNC1(c2cc3ccccc3s2)CCCCC1,26.4 µM,28.4 µM,40.9 µM,28 µM,28.5 µM,35.1 µM,22.6,40.1 µM,32.2 µM,30.8 µM
C#C[C@]1(O)CC[C@H]2[C@@H]3CCC4=C/C(=N/OC(=O)c5cccc6c(=O)c7ccccc7[nH]c56)CC[C@@H]4[C@H]3CC[C@@]21C,> 100 µM,38.1 µM,> 100 µM,33.2 µM,> 100 µM,> 100 µM,> 100,> 100 µM,> 100 µM,> 100 µM
CN1COCc2c1ccc1cc3ccc4c(c3nc21)COCN4S(C)(=O)=O,> 100 µM,> 100 µM,> 100 µM,> 100 µM,> 100 µM,> 100 µM,> 100,> 100 µM,> 100 µM,> 100 µM
CN(C)CCOC1(Cc2ccc(F)cc2)CCC(C(C)(C)C)CC1 (stereo not given),27.5 µM and 24.8 µM,8.88 µM and 12.3 µM,16.6 µM and 20.7 µM,8.37 µM and 6.34 µM,19.3 µM and 18.8 µM,25.1 µM and 26.9 µM,25.3,23.8 µM and 22.9 µM,21.4 µM and 22.3 µM,13.4 µM and 12.1 µM
CCNC(=O)Nc1cccc(NC(=O)NCC)n1,> 100 µM,> 100 µM,> 100 µM,> 100 µM,> 100 µM,> 100 µM,> 100,> 100 µM,> 100 µM,> 100 µM
COc1ccc2c(cnc3c4cc(OC)c(OC)cc4ccc23)c1,> 100 µM,> 100 µM,> 100 µM,> 100 µM,> 100 µM,> 100 µM,> 100,> 100 µM,> 100 µM,> 100 µM
CCC(=O)ONC(=O)Cn1ccc([N+](=O)[O-])n1,> 100 µM,> 100 µM,> 100 µM,> 100 µM,> 100 µM,> 100 µM,> 100,> 100 µM,> 100 µM,> 100 µM
COc1ccc2c(c1)CCN1CCc3ccccc3CC21 (stereo not given),> 100 µM,> 100 µM,> 100 µM,> 100 µM,> 100 µM,> 100 µM,68.3,> 100 µM,> 100 µM,> 100 µM
COc1nc2nccnc2c(=O)n1C,> 10 µM,> 10 µM,> 10 µM,> 10 µM,> 10 µM,> 10 µM,> 10,> 10 µM,> 10 µM,> 10 µM
Nc1nc(Cl)cc(NCC2(CO)CCCC2)n1,> 100 µM,> 100 µM,> 100 µM,> 100 µM,> 100 µM,> 100 µM,> 100,> 100 µM,> 100 µM,> 100 µM
CC12CCC(O)CC1CCC1C2CCC2(C)C(C(=O)CC(O)C(F)(F)F)CCC12 (stereo not given),> 100 µM,43.6 µM,> 100 µM,11.2 µM,> 95.1 µM,> 100 µM,> 85.2,98.2 µM,> 100 µM,> 91.6 µM
CC(=O)[C@@]1(O)CC[C@H]2[C@@H]3C[C@H](C)C4=CC(=O)C=C[C@]4(C)[C@@]3(F)[C@@H](O)C[C@@]21C,> 100 µM,> 100 µM,> 100 µM,> 100 µM,> 100 µM,> 100 µM,> 100,> 100 µM,> 100 µM,> 100 µM
CSc1ncnc2c1ncn2CCC#N,> 100 µM,> 100 µM,> 100 µM,> 100 µM,> 100 µM,> 100 µM,> 100,> 100 µM,> 100 µM,> 100 µM
